# How the values were obtained:
# Bacillus cereus = assay: Antimicrobial activity by the paper disc method; format: cell-based; details: 8 mm, 0.02 ml of a 300 μg/ml solution, trypticase-soy agar
# Description: (§1) With trypticase-soy agar (BBL) as an assay medium, the inhibitory concentrations against the microorganisms described below were investigated by the paper disc method. Thus, filter-paper discs (Toyo Seisakusho, thin-type, 8 mm in dia.) each impregnated with 0.02 ml of a 300 μg/ml solution of P-4 were placed on agar plates respectively inoculated with the microorganisms described below. P-4 had no activity against the following bacteria. Escherichia coli, Proteus vulgaris, Proteus mirabilis, Pseudomonas aeruginosa, Staphylococcus aureus, Bacillus subtilis, Bacillus cereus, Klebsiella pneumoniae, Serratia marcescens and Mycobacterium avium
# Bacillus subtilis = assay: Antimicrobial activity by the paper disc method; format: cell-based; details: 8 mm, 0.02 ml of a 300 μg/ml solution, trypticase-soy agar
# Description: as §1
# Escherichia coli = assay: Antimicrobial activity by the paper disc method; format: cell-based; details: 8 mm, 0.02 ml of a 300 μg/ml solution, trypticase-soy agar
# Description: as §1
# Klebsiella pneumoniae = assay: Antimicrobial activity by the paper disc method; format: cell-based; details: 8 mm, 0.02 ml of a 300 μg/ml solution, trypticase-soy agar
# Description: as §1
# Mycobacterium avium = assay: Antimicrobial activity by the paper disc method; format: cell-based; details: 8 mm, 0.02 ml of a 300 μg/ml solution, trypticase-soy agar
# Description: as §1
# Proteus mirabilis = assay: Antimicrobial activity by the paper disc method; format: cell-based; details: 8 mm, 0.02 ml of a 300 μg/ml solution, trypticase-soy agar
# Description: as §1
# Proteus vulgaris = assay: Antimicrobial activity by the paper disc method; format: cell-based; details: 8 mm, 0.02 ml of a 300 μg/ml solution, trypticase-soy agar
# Description: as §1
# Pseudomonas aeruginosa = assay: Antimicrobial activity by the paper disc method; format: cell-based; details: 8 mm, 0.02 ml of a 300 μg/ml solution, trypticase-soy agar
# Description: as §1
# Serratia marcescens = assay: Antimicrobial activity by the paper disc method; format: cell-based; details: 8 mm, 0.02 ml of a 300 μg/ml solution, trypticase-soy agar
# Description: as §1
# Staphylococcus aureus = assay: Antimicrobial activity by the paper disc method; format: cell-based; details: 8 mm, 0.02 ml of a 300 μg/ml solution, trypticase-soy agar
# Description: as §1
# Fusicladium levieri = assay: Activity against microorganisms; format: cell-based
# [1] = tested on: Helminthosporium sigmoidium var. irregulare; assay: Activity against microorganisms; format: cell-based
# Pyricularia oryzae = format: cell-based
# Cochlioborus miyabeanus = assay: Activity against microorganisms; format: cell-based
# Sclerotinia screrotiorum = assay: Activity against microorganisms; format: cell-based
# Pellicularia sasakii = assay: Activity against microorganisms; format: cell-based
# Trichophyton rubrum = assay: Activity against microorganisms; format: cell-based
# Rhodotorula ruba = assay: Activity against microorganisms; format: cell-based
# Cryptococcus neoformans = assay: Activity against microorganisms; format: cell-based
# P388 leukemia = assay: Antitumour activity upon P388 leukemia in mice; format: in vivo, mouse; details: 1×10^6 cells/animal i.p., 0.00625 mg/kg/day intraperitoneally for 9 consecutive days
# Source text: The therapeutic effects of P-4 (dosed intraperitoneally for 9 consecutive days) upon P388 leukemia in mice (1×10^6 cells/animal, mouse, intraperitoneally transplanted) was investigated.
# [2] = Preliminary acute toxicity test with mice; details: mouse, in vivo, ip, intraperitoneal
# Source text: In a preliminary acute toxicity test with mice as test animals, which involved intraperitoneal injections of P-4.
# Solubility = format: physicochemical
smiles,measurement,setting,value
COc1cc2cc(c1Cl)N(C)C(=O)CC(OC(=O)CC(C)C)C1(C)OC1C(C)C1CC(O)(NC(=O)O1)C(OC)C=CC=C(C)C2 (stereo not drawn) [P-4],activity against Bacillus cereus,Bacillus cereus,no activity
same,activity against Bacillus subtilis,Bacillus subtilis,no activity
same,activity against Escherichia coli,Escherichia coli,no activity
same,activity against Klebsiella pneumoniae,Klebsiella pneumoniae,no activity
same,activity against Mycobacterium avium,Mycobacterium avium,no activity
same,activity against Proteus mirabilis,Proteus mirabilis,no activity
same,activity against Proteus vulgaris,Proteus vulgaris,no activity
same,activity against Pseudomonas aeruginosa,Pseudomonas aeruginosa,no activity
same,activity against Serratia marcescens,Serratia marcescens,no activity
same,activity against Staphylococcus aureus,Staphylococcus aureus,no activity
same,activity against Fusicladium levieri,Fusicladium levieri,had the activity
same,activity against Helminthosporium sigmoidium var. irregulare,[1],had the activity
same,activity against Pyricularia oryzae,Pyricularia oryzae,had the activity
same,activity against Cochlioborus miyabeanus,Cochlioborus miyabeanus,had the activity
same,activity against Sclerotinia screrotiorum,Sclerotinia screrotiorum,had the activity
same,activity against Pellicularia sasakii,Pellicularia sasakii,had the activity
same,activity against Trichophyton rubrum,Trichophyton rubrum,had the activity
same,activity against Rhodotorula ruba,Rhodotorula ruba,had the activity
same,activity against Cryptococcus neoformans,Cryptococcus neoformans,had the activity
same,life-span-extending ratio,P388 leukemia,180%
same,LD50,[2],> 0.313 mg/kg
same,Solubility,"Solubility; in benzene, ether",Sparingly soluble
same,Solubility,"Solubility; in chloroform, ethyl acetate, acetone, ethanol, methanol, pyridine, tetrahydrofuran, dimethylsulfoxide",Soluble
same,Solubility,"Solubility; in petr. ether, hexane, water",Insoluble
